Measurements: US20080076808A1, “SKIN COMPOSITION” (MARS INCORPORATED, priority 2003, published 2008)
Like-named read-outs stand apart in the source and are kept apart here.

Columns and labels:
canine keratinocytes [1] = conditions: stated as 'known to'; FIG. 5; cited from earlier work
canine keratinocytes [2] = assay: In vitro ceramide synthesis assay (14C-serine incorporation); type: cell-based; conditions: stated as 'has been shown'; FIGS. 2, 3, 7, 8
Description: Canine keratinocytes were obtained via explant culture of skin samples taken from healthy adult animals (4 mm biopsy). Samples are washed and dissected in cold PBS containing antibiotics. The epidermis is dissected away from the dermis and cut into 1 mm^2 pieces. The pieces of epidermis are then placed into individual wells of a 24 well collagen-coated plastic plate and briefly allowed to dry down (60 seconds). Green's medium supplemented with 10% fetal bovine serum is then added and the explants cultured for 7-10 days until keratinocytes begin growing out of the edges of the skin. The primary skin cells are now detached from the plastic and explant tissue using trypsin and moved onto a i3T3 (irradiated fibroblast) feeder layer. Cells are expanded on the feeder layer until near confluent at which time they can be moved onto plastic alone. The primary keratinocytes can be used for assays at this point or further expanded in number as required. Keratinocytes are seeded in collagen-coated 24 well plates at a density of 5×10^4 cells per well. These cells are allowed to settle overnight and then the media changed. Cells are then left for 4 days under proliferation promoting culture conditions (in the presence of bovine pituitary extract). Following the 4 days the media is changed to one that promotes differentiation and at this stage the supplement to be tested is added (see individual experiments). Following 6 days under these conditions [^14C]-Serine is added for the ceramide assay or [^14C]-Acetate added for the total lipid assay, in both cases at 0.5 microCi per well. Cells are incubated in the presence of the radioactive markers and supplement for 2 days. At the end of the incubation period cells were harvested using trypsin and washed using PBS. Lipids were subsequently extracted using Bligh-Dyer solution and then added to 4 ml of scintillation fluid. The radioactivity was counted with a liquid scintillation spectrometer. Results for the ceramide synthesis assays are seen in FIGS. 1-6. Results for total lipid synthesis assays are seen in FIGS. 7-8. […]

SMILES: Cc1ncc(CO)c(CO)c1O [Pyridoxine, pyridoxine]
- epidermal ceramide synthesis (canine keratinocytes [1]): increase

SMILES: NC(=O)c1cccnc1 [Nicotinamide, nicotinamide]
- epidermal ceramide synthesis (canine keratinocytes [2]): increase

SMILES: O=C(O)[C@@H]1CCCN1 [Proline, proline]
- epidermal ceramide synthesis (canine keratinocytes [2]): increase

SMILES: N[C@@H](Cc1c[nH]cn1)C(=O)O [Histidine, histidine]
- epidermal ceramide synthesis (canine keratinocytes [2]): increase
